From ChEMBL document CHEMBL1201862, “PubChem BioAssay data set” (2004) come the findings set out here.

The target of one assay is T1, Caspase-3 (Homo sapiens, UniProt P42574).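 Also: Dose-response selectivity test against caspase-3 for candidate inhibitors of sentrin-specific proteases (SENPs).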
T1 sequence (P42574 whole entry): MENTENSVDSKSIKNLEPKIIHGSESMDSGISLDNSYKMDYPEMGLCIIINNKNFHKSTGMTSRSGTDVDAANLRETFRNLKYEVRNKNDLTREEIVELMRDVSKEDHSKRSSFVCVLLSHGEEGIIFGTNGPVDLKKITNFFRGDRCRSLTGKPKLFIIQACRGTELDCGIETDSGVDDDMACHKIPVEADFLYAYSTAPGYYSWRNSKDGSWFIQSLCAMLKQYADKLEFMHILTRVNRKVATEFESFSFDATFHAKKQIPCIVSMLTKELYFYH
Format: functional.

In assay [1] the target is T2, Sentrin-specific protease 7 (Homo sapiens, UniProt Q9BQF6).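 Also: Luminescence-based dose-response confirmation of ultra-high-throughput screening hits, measuring inhibition of SENP7.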
T2 sequence (Q9BQF6 whole entry): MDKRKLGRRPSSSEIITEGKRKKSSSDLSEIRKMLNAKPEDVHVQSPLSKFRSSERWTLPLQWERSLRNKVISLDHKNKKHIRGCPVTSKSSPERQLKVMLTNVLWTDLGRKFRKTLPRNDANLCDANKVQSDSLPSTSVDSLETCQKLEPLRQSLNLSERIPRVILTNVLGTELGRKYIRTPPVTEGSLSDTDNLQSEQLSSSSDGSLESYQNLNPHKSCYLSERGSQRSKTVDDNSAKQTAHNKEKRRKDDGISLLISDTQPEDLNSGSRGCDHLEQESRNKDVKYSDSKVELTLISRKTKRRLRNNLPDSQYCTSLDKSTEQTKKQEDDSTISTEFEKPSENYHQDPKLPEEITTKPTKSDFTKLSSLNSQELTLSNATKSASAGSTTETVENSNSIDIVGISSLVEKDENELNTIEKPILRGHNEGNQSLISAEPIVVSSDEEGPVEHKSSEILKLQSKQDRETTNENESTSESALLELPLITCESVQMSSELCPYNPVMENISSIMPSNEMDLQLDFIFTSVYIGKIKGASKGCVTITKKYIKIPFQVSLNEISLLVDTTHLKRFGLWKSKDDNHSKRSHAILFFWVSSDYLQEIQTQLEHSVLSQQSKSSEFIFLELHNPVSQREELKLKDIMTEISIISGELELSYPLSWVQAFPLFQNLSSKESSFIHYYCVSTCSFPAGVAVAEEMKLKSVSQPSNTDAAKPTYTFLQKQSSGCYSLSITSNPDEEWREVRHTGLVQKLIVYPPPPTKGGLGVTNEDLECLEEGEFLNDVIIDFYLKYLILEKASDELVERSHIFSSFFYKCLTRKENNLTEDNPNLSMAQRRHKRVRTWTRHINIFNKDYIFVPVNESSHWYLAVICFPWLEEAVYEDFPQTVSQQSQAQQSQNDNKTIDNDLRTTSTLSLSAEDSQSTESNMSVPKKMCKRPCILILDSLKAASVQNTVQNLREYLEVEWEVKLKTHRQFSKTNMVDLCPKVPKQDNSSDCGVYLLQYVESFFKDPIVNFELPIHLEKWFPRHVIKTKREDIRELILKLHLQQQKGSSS
The class given is functional.

Assay [2] concerns the target T3, Sentrin-specific protease 6 (Homo sapiens, UniProt Q9GZR1).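 Also: Luminescence-based dose-response confirmatory assay of SENP6 inhibition, following up an ultra-high-throughput screen.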
T3 sequence (Q9GZR1 whole entry): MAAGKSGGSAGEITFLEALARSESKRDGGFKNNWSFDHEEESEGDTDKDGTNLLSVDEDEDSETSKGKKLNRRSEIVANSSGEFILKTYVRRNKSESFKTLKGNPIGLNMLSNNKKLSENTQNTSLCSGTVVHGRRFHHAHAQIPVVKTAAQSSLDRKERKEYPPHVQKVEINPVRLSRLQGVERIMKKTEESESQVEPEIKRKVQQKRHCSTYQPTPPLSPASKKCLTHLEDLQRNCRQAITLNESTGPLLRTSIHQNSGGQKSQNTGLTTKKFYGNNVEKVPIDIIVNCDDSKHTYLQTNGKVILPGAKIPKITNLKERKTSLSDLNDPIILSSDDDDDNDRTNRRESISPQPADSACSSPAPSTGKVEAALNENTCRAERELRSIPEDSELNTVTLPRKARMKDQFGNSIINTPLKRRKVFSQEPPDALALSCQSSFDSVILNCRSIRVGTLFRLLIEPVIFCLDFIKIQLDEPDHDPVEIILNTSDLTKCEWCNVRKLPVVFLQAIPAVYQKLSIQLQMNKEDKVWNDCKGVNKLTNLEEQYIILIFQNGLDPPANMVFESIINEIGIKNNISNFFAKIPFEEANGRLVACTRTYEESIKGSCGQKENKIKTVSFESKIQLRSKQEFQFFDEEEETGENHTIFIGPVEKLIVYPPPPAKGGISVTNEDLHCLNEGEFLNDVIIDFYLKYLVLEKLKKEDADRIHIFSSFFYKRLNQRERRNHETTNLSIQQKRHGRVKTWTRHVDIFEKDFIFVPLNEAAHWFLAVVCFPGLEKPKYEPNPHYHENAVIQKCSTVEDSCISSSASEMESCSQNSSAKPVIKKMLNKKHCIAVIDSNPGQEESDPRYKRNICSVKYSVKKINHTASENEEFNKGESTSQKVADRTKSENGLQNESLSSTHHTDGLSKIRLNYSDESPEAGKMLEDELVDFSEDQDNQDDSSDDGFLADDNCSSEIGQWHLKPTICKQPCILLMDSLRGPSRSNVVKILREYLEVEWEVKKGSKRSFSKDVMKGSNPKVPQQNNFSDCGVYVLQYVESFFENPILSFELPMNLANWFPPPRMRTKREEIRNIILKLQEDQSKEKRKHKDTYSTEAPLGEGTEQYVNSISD
The class given is functional.

In assay [3] the target is T4, Sentrin-specific protease 8 (Homo sapiens, UniProt Q96LD8).
T4 sequence (Q96LD8 whole entry): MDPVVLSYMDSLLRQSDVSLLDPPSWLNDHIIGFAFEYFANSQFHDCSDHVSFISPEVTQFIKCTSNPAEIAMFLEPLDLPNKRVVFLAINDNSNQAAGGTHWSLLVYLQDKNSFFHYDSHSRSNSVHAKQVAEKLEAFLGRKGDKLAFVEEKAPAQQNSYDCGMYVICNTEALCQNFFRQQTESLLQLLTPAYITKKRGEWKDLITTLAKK
Format: functional.

The target of assay [4] is T4, Sentrin-specific protease 8. The class given is functional. The source holds these as a separate data set.
For assay [5] the target is unchanged. Format: functional. The source holds these as a separate data set.
In the next assay the target is T5, Caspase-6 (Homo sapiens, UniProt P55212).
T5 sequence (P55212 whole entry): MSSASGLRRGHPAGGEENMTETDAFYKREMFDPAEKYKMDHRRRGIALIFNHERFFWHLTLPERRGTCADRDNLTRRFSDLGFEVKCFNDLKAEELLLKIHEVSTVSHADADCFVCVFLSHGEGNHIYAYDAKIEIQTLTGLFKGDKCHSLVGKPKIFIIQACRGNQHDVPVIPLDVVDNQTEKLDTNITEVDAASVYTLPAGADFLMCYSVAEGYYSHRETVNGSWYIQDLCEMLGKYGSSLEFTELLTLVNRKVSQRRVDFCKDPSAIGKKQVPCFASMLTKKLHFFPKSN
In words: inhibition of CASP6 peptide cleavage – biochemical, VEID-R110 fluorescence, cherry-pick, dose response (AID 720632).

Assay [6] concerns the target T6, Methionyl-tRNA synthetase, putative (Trypanosoma brucei brucei, UniProt Q38C91).
T6 sequence (Q38C91 whole entry): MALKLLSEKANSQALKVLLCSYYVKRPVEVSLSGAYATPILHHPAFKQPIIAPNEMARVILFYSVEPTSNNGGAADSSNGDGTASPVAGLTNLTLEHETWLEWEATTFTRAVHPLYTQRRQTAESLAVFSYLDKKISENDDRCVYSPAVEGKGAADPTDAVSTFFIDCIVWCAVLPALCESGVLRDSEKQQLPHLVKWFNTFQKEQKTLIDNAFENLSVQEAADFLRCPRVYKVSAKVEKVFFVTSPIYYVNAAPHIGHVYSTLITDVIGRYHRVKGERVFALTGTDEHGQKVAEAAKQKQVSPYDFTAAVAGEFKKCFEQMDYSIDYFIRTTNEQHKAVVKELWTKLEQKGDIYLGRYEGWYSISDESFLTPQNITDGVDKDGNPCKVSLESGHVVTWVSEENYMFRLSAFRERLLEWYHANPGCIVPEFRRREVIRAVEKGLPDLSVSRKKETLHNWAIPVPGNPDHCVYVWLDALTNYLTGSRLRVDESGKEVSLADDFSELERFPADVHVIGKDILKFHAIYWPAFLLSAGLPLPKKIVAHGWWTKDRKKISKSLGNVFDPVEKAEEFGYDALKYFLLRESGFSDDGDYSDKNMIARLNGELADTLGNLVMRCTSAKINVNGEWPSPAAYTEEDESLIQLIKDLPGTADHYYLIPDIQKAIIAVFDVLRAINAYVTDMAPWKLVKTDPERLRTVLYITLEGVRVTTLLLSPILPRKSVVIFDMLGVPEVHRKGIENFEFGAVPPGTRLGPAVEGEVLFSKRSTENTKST
The class given is functional, Trypanosoma brucei brucei strain 927/4 GUTat10.1.

Assay [7] in a line: Counterscreen for inhibitors of Trypanosoma brucei methionyl tRNA synthetase (MetRS): Luminescence-based cell-based high throughput dose response assay to identify compounds that are cytotoxic to Jurkat human T lymphocyte cells. The class given is functional. On the technique in general: The purpose of a counterscreen is to sort out artefacts and off-target activity.
The target of assay [8] is T6, Methionyl-tRNA synthetase, putative. The class given is functional, Trypanosoma brucei brucei strain 927/4 GUTat10.1. This is another data set of the same source.
The target in assay [9] is SWI/SNF-related matrix-associated actin-dependent regulator of chromatin subfamily A member 2 (Homo sapiens, UniProt P51531). Put plainly: Luminescence-based cell-based high throughput dose response assay to identify activators of the function of SWI/SNF related, matrix associated, actin dependent regulator of chromatin, subfamily a, member 2 (SMARCA2, BRM). The class given is functional.

Assay [10] in a line: Counterscreen for activators of the function of SWI/SNF related, matrix associated, actin dependent regulator of chromatin, subfamily a, member 2 (SMARCA2, BRM): Luminescence-based cell-based high throughput dose response assay to identify non-selective compounds using the VP16 reporter assay. Format: functional.
Assay [11] is described as follows: Luminescence Cell-Based Dose Retest to Confirm Inhibitors of Cancer Stem Cells. [Related pubchem assays (depositor defined):AID2717, AID2721]. Format: functional. To be noted: Homo sapiens.
The target of assay [12] is T7, Heat shock factor protein 1 (Mus musculus, UniProt P38532).
T7 sequence (P38532 whole entry): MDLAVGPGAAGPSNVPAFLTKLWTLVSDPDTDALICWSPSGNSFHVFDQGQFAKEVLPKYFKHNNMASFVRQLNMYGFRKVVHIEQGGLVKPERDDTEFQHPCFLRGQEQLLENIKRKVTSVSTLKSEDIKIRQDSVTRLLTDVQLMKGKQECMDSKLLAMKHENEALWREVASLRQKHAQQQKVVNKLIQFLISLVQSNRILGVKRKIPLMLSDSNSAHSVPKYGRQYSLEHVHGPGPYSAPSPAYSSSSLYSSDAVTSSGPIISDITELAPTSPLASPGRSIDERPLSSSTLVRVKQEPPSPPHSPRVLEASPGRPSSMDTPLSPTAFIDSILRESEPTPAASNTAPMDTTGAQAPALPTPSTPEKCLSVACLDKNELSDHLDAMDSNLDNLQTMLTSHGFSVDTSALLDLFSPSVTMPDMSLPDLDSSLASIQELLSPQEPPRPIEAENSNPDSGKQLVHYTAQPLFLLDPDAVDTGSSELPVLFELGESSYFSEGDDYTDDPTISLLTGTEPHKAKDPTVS
In words: enhancement of HSF1-driven luciferase signal – cell-based, NIH3T3, luminescence, dose retest, confirmation (AID 435004).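 Also: stress induced by proteasome inhibitor MG132 added 30 min after compound; luciferase reporter driven by HSF1 response element in NIH3T3 cells; actives raise luminescence as potentiators of the MG132 stress response.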 The class given is functional.

Assay [13] can be described thus: viability loss in HEK293T cells – cell-based, cherry-picks, cytotoxicity control for HIV Vif inhibitor project, dose response (AID 652208). Format: functional.
In the next assay the target is Mu-type opioid receptor (Homo sapiens, UniProt P35372). Format: functional, cell-based.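 Also: U2OS cells with beta-arrestin recruitment to OPRM1 by beta-gal complementation.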
For assay [14], the target named is 5-hydroxytryptamine receptor 2A (Mus musculus, UniProt P35363). Format: functional, cell-based.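 Also: CHO-K1 cells with tagged receptor and beta-arrestin; agonist potency measured as compound-induced activation of the receptor.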
Assay [15] is described as follows: cytotoxicity in HEK293 background cells – cell-based, dry powder, set 2, counter-screen for EBV LMP1 inhibitor project, dose response (AID 624374). Format: functional.

Activity calls are given as the source filed them. A value given as a limit tells only on which side of the number the result lay.

Chain of 5-hydroxytryptamine receptor 2A (P35363 whole entry): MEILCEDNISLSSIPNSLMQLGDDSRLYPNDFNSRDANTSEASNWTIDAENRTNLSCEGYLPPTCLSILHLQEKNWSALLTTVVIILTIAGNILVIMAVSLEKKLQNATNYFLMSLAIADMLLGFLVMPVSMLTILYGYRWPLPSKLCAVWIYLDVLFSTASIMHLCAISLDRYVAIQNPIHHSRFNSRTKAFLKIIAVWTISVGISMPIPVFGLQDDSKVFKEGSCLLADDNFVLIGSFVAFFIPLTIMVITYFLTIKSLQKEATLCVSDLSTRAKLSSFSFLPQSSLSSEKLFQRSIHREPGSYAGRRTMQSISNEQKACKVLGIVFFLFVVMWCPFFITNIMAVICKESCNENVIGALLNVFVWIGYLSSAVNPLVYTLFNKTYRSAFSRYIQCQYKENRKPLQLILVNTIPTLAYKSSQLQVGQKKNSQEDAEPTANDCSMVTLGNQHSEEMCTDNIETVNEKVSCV
Chain of SWI/SNF-related matrix-associated actin-dependent regulator of chromatin subfamily A member 2 (P51531 whole entry): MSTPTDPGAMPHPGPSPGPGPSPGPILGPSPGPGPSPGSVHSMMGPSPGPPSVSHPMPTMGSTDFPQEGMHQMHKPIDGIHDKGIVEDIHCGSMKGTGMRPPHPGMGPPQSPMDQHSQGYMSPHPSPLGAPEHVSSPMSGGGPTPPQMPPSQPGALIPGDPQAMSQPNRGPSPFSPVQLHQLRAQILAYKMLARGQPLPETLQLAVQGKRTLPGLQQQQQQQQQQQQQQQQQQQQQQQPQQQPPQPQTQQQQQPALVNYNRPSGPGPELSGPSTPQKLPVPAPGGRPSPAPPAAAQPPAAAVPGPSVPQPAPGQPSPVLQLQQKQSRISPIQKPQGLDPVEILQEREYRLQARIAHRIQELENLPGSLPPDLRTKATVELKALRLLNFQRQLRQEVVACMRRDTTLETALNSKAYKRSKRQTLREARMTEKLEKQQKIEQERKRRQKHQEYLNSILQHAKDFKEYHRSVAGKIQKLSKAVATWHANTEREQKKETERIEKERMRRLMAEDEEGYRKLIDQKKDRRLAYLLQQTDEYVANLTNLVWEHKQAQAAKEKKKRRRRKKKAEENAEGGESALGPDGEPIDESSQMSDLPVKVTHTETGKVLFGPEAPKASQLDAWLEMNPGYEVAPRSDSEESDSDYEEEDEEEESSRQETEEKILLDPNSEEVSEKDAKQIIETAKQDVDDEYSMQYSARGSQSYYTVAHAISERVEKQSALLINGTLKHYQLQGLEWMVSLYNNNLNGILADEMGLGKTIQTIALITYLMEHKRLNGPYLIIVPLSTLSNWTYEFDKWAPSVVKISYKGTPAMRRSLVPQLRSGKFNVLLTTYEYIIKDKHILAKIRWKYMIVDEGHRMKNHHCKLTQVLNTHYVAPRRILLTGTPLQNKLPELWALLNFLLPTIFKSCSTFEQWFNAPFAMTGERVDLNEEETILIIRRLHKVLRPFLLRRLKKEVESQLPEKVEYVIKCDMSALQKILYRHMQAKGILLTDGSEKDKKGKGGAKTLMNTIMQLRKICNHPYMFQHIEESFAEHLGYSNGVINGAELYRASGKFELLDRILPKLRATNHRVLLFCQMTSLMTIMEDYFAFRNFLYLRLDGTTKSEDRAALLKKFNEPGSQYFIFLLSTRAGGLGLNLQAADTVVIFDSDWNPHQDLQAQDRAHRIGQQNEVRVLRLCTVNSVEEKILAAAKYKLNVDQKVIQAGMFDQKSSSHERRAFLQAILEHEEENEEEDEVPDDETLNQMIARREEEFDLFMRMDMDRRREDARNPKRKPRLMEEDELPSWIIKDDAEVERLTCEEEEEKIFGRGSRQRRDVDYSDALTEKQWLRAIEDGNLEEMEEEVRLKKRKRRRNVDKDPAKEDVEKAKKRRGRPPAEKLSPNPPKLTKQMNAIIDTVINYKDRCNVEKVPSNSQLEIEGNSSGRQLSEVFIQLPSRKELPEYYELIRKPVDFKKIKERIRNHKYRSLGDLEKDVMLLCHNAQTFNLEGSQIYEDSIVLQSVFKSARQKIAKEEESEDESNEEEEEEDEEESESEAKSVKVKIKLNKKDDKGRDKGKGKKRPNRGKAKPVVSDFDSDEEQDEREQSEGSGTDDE
Chain of Mu-type opioid receptor (P35372 whole entry): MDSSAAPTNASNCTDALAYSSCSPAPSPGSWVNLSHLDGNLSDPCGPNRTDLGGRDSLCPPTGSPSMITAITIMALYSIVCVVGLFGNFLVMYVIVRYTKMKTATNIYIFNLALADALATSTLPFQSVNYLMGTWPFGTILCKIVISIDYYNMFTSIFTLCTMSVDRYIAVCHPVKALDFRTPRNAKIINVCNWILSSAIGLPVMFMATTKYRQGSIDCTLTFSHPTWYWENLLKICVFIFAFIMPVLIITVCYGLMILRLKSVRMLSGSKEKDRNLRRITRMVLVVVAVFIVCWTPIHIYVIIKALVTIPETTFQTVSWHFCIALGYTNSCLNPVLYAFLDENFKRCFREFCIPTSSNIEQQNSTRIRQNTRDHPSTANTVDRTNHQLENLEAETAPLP

For the compound `O=C1OC(Nc2cc(Br)cc3cccnc23)c2ccccc21` (stereo not given), the IC50 at Caspase-3 is 2.67 µM (active); in assay [1], 1.79 µM (active); in assay [2], < 1.55 µM (active); in assay [3], 1.63 µM (active); in assay [4], > 100 µM (inactive); in assay [5] it was 8.4 µM (active). The concentration at half-maximal activity (AC50) on Caspase-6 was 11.1 µM (active).

With `Oc1nc(CSc2ncc(C(F)(F)F)cc2Cl)nc2ccccc12`, the figures for the IC50 in assay [6], in assay [7] and in [8] were 14.4 µM (inactive), 35.7 µM (inactive) and 5.35 µM (active), respectively.

`Brc1ccc2[nH]c3c(NCc4ccccn4)ncnc3c2c1`: the 50% inhibitory concentration (IC50) is 5.71 µM (active) in assay [6], 83.3 µM (inactive) in assay [7] and 3.47 µM (active) in assay [8].

Consider `N#CCn1cnc2sc(-c3ccccc3)cc2c1=O`, for which the EC50 in assay [9] and in assay [10] was > 91.2 µM (inactive) in each case.

As to `CC(C)(C)CC(=O)O/N=C(\N)c1ccccn1`, the EC50 in assay [9] and in [10] was > 91.1 µM (inactive) throughout.

Consider `O=C(COC(=O)/C=C/C(=O)OCC(=O)Nc1ccccc1F)Nc1ccccc1F`, for which the AC50 in assay [11] is 7.02 µM (active); in assay [13], 44.3 µM (active). In [12], the EC50 is 11.1 µM (active).

Consider `CCOc1ccc(CN2CCN(C(=O)c3ccco3)CC2)cc1`, for which the EC50 on Mu-type opioid receptor is 92.5 µM (inactive); in [14], 0.965 µM (active).

With `CC12CCC(C(=O)N(CCCCN3CCN(c4ccccn4)CC3)C1=O)C2(C)C` (stereo not given), the EC50 on Mu-type opioid receptor is 92.5 µM (inactive); in assay [14] it was 0.0105 µM (active).

In [15], `N#C[C@H]1[C@@H](c2ccc(-c3cccnc3)cc2)[C@@H](CO)N1C(=O)Nc1ccc(F)cc1` showed an AbsAC35 of 162.11 µM.

The IC50 is the point on the concentration scale where inhibition reaches its midpoint. As usually defined, the AC50 is the concentration at which the activity in the assay is half-maximal. The term EC50 denotes the concentration at which the effect is half-maximal.
